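Five compound concentrations were applied to cells in 96-well plates for 48 hours; endpoints were derived by simple linear interpolation of the resulting dose-response curve. GI50: concentration for 50% inhibition of growth.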 Active and inactive are the calls of the source. Cut-off read from the data, not from the text of the source: active = GI50 up to about 1.1 µM and inactive = higher.
Columns and labels:
Assay in all cases: inhibition of tumour cell growth, NCI panel, 48 h
SK-MEL-2 = tested on: SK-MEL-2
786-0 = tested on: 786-0
NCI-H226 = tested on: NCI-H226
A498 = tested on: A498
Malme-3M = tested on: Malme-3M
MCF7 = tested on: MCF7
Hs-578T = tested on: Hs-578T
HT-29 = tested on: HT-29
CCRF-CEM = tested on: CCRF-CEM
T47D = tested on: T47D
SNB-19 = tested on: SNB-19
EKVX = tested on: EKVX
OVCAR-4 = tested on: OVCAR-4
SF-539 = tested on: SF-539
SK-MEL-5 = tested on: SK-MEL-5
UACC-62 = tested on: UACC-62
LOX IMVI = tested on: LOX IMVI
ACHN = tested on: ACHN
MDA-MB-231 = tested on: MDA-MB-231
SK-OV-3 = tested on: SK-OV-3
COLO 205 = tested on: COLO 205
HOP-62 = tested on: HOP-62
SK-MEL-28 = tested on: SK-MEL-28
SN12C = tested on: SN12C
SF-295 = tested on: SF-295
NCI-H23 = tested on: NCI-H23
NCI-H460 = tested on: NCI-H460
HOP-92 = tested on: HOP-92
MOLT-4 = tested on: MOLT-4
UACC-257 = tested on: UACC-257
DU-145 = tested on: DU-145
CAKI-1 = tested on: CAKI-1
MDA-MB-435 = tested on: MDA-MB-435
RXF 393 = tested on: RXF 393
A549 = tested on: A549
SF-268 = tested on: SF-268
U-251 = tested on: U-251
BT-549 = tested on: BT-549
RPMI-8226 = tested on: RPMI-8226
HCT-116 = tested on: HCT-116
HL-60 = tested on: HL-60
M14 = tested on: M14
NCI/ADR-RES = tested on: NCI/ADR-RES
SR = tested on: SR
MDA-N = tested on: MDA-N
IGROV-1 = tested on: IGROV-1
SW-620 = tested on: SW-620
PC-3 = tested on: PC-3
K562 = tested on: K562
HCC 2998 = tested on: HCC 2998
NCI-H522 = tested on: NCI-H522
SNB-75 = tested on: SNB-75
OVCAR-8 = tested on: OVCAR-8
TK-10 = tested on: TK-10
HCT-15 = tested on: HCT-15
KM12 = tested on: KM12
OVCAR-5 = tested on: OVCAR-5
UO-31 = tested on: UO-31
OVCAR-3 = tested on: OVCAR-3

COc1cc(Br)cc2nc(-c3cccs3)oc12
GI50 (SK-MEL-2): > 100 µM (inactive)
GI50 (786-0): > 56 µM (inactive)
GI50 (NCI-H226): > 100 µM (inactive)
GI50 (A498): > 55.3 µM (inactive)
GI50 (Malme-3M): > 100 µM (inactive)
GI50 (MCF7): 2.3 µM (inactive)
GI50 (Hs-578T): 31.3 µM (inactive)
GI50 (HT-29): > 100 µM (inactive)
GI50 (CCRF-CEM): > 100 µM (inactive)
GI50 (T47D): 6.15 µM (inactive)
GI50 (SNB-19): > 83 µM (inactive)
GI50 (EKVX): > 61.9 µM (inactive)
GI50 (OVCAR-4): > 26.9 µM (inactive)
GI50 (SF-539): 75.9 µM (inactive)
GI50 (SK-MEL-5): 74.1 µM (inactive)
GI50 (UACC-62): > 100 µM (inactive)
GI50 (LOX IMVI): > 100 µM (inactive)
GI50 (ACHN): > 83.8 µM (inactive)
GI50 (MDA-MB-231): > 42.2 µM (inactive)
GI50 (SK-OV-3): > 90.6 µM (inactive)
GI50 (COLO 205): > 100 µM (inactive)
GI50 (HOP-62): 24.5 µM (inactive)
GI50 (SK-MEL-28): > 100 µM (inactive)
GI50 (SN12C): > 100 µM (inactive)
GI50 (SF-295): 55.7 µM (inactive)
GI50 (NCI-H23): > 68.1 µM (inactive)
GI50 (NCI-H460): > 100 µM (inactive)
GI50 (HOP-92): > 63.5 µM (inactive)
GI50 (MOLT-4): > 100 µM (inactive)
GI50 (UACC-257): > 100 µM (inactive)
GI50 (DU-145): > 100 µM (inactive)
GI50 (CAKI-1): > 86.5 µM (inactive)
GI50 (MDA-MB-435): > 100 µM (inactive)
GI50 (RXF 393): 45.6 µM (inactive)
GI50 (A549): > 100 µM (inactive)
GI50 (SF-268): > 62.4 µM (inactive)
GI50 (U-251): 42.1 µM (inactive)
GI50 (BT-549): > 67.8 µM (inactive)
GI50 (RPMI-8226): > 100 µM (inactive)
GI50 (HCT-116): > 70.6 µM (inactive)
GI50 (HL-60): > 100 µM (inactive)
GI50 (M14): > 100 µM (inactive)
GI50 (NCI/ADR-RES): > 100 µM (inactive)
GI50 (SR): > 100 µM (inactive)
GI50 (MDA-N): > 100 µM (inactive)
GI50 (IGROV-1): > 43.2 µM (inactive)
GI50 (SW-620): > 100 µM (inactive)
GI50 (PC-3): > 100 µM (inactive)
GI50 (K562): > 100 µM (inactive)
GI50 (HCC 2998): > 100 µM (inactive)
GI50 (NCI-H522): 99.8 µM (inactive)
GI50 (SNB-75): > 51.3 µM (inactive)
GI50 (OVCAR-8): > 100 µM (inactive)
GI50 (TK-10): 31.8 µM (inactive)
GI50 (HCT-15): 16.2 µM
GI50 (KM12): > 100 µM (inactive)
GI50 (OVCAR-5): > 100 µM (inactive)
GI50 (UO-31): > 54.7 µM (inactive)
GI50 (OVCAR-3): > 100 µM (inactive)
